Non-standard residues stand in square brackets, D forms with d. Residues, ends and D or L forms follow the SMILES beside them. d(aIle) = CC[C@H](C)[C@@H](N)C(=O)O; NMeF = CN[C@@H](Cc1ccccc1)C(=O)O; dNMeF = CN[C@H](Cc1ccccc1)C(=O)O; NMeA = CN[C@@H](C)C(=O)O
Tests used:
3T3-L1 [1] = assay: Inhibition of fat-accumulation in mouse 3T3L1 cells; assay type: functional, cell-based
3T3-L1 [2] = assay: Cytotoxicity against mouse 3T3L1 cells; assay type: cell-based
3T3-L1 [3] = assay: Selectivity index, ratio of IC50 for mouse 3T3L1 cells to IC50 for fat-accumulation in mouse 3T3L1 cells; assay type: functional
3T3-L1 [4] = assay: Cytotoxicity against mouse 3T3L1 cells at 62 uM; assay type: cell-based; conditions: 3t3-l1, 62 µM

SMILES	IC50 (3T3-L1 [1])	IC50 (3T3-L1 [2])	Ratio IC50 (3T3-L1 [3])	Activity (3T3-L1 [4])
CC[C@H](C)[C@H]1NC(=O)[C@@H](Cc2ccccc2)N(C)C(=O)[C@H](C)N(C)C(=O)[C@H](CC(C)C)NC(=O)[C@H](Cc2ccccc2)N(C)C(=O)[C@H](C(C)C)NC(=O)[C@@H](C(C)C)NC1=O (cyclo(L[NMeA][dNMeF][d(aIle)][dV]V[NMeF]))	42 µM	> 240 µM	>12.3	
CC[C@H](C)[C@H]1NC(=O)[C@@H](Cc2ccoc2)N(C)C(=O)[C@H](C)N(C)C(=O)[C@H](CC(C)C)NC(=O)[C@H](Cc2ccoc2)N(C)C(=O)[C@H](C(C)C)NC(=O)[C@@H](C(C)C)NC1=O [RHIZONIN A]	55 µM	62 µM	1	70%
